# According to publication PMC7129073 (Clinical Microbiology and Infection, 2015):
# Key:
# [1] = test system: K. pneumoniae; assay: MIC; assay type: cell-based, Klebsiella pneumoniae
# [2] = test system: inducible Enterobacteriaceae; assay: SMART 2003, intraabdominal isolates; assay type: cell-based
# [3] = test system: Enterobacteriaceae; assay: SMART 2003 Europe, microdilution; assay type: cell-based; details: 1948 isolates
# [4] = test system: E. coli; assay: SMART 2003 Europe, microdilution; assay type: cell-based, Escherichia coli; details: 1106 isolates
# [5] = test system: Klebsiella; assay: SMART 2003 Europe, microdilution; assay type: cell-based, Klebsiella spp.; details: 341 isolates
# [6] = test system: S. aureus; assay: E-test susceptibility; assay type: cell-based, Staphylococcus aureus
# [7] = test system: Acinetobacter; assay: Disk diffusion; assay type: cell-based; details: 37 isolates selected as resistant to beta-lactams
# [8] = test system: Salmonella serotype Enteritidis; assay: Disk diffusion, food isolates Spain; assay type: cell-based; details: n = 96
# [9] = test system: Salmonella serotype Typhimurium; assay: Disk diffusion, food isolates Spain; assay type: cell-based; details: n = 53
# [10] = test system: Salmonella, other 49 serotypes; assay: Disk diffusion, food isolates Spain; assay type: cell-based; details: n = 115
# [11] = test system: glycopeptide intermediate Staphylococcus species (GISS); assay: VITEK II, screening plate and E test, blood isolates; assay type: cell-based, coagulase-negative Staphylococci; details: 73 GISS strains
# [12] = test system: MSSA; assay: Agar dilution MIC; assay type: cell-based, Staphylococcus aureus; details: Staphylococcus aureus, MSSA
# [13] = test system: MRSA; assay: Agar dilution MIC; assay type: cell-based, Staphylococcus aureus; details: Staphylococcus aureus, MRSA
# [14] = test system: S. pneumoniae; assay: PROTEKT Italy, NCCLS microdilution; assay type: cell-based, Streptococcus pneumoniae
# [15] = test system: S. pneumoniae; assay: Broth microdilution; assay type: cell-based, Streptococcus pneumoniae; details: 275 isolates
# [16] = test system: viridans group streptococci (VGS); assay: MIC; assay type: cell-based; details: 107 strains
# [17] = test system: H.influenzae; assay: Broth microdilution; assay type: cell-based, Haemophilus influenzae; details: for %Sus: NCCLS
# [18] = test system: S. pneumoniae; assay: Broth microdilution; assay type: cell-based, Streptococcus pneumoniae
# [19] = test system: PRSP; assay: Broth microdilution; assay type: cell-based, Streptococcus pneumoniae
# [20] = test system: ERSP; assay: Broth microdilution; assay type: cell-based, Streptococcus pneumoniae
# [21] = test system: nontyphoidal Salmonella; assay: Agar dilution, isolates from chickens 1998–2004; assay type: cell-based, Salmonella spp.
# [22] = NCCLS breakpoints (Amox/Clav 2/1 mcg/mL)
# [23] = PK breakpoint of 4/2 mcg/mL, Augmentin ES-600
compound,measurement,setting,value
C[C@@H](O)[C@H]1C(=O)N2C(C(=O)O)=C(S[C@@H]3CN[C@H](C(=O)Nc4cccc(C(=O)O)c4)C3)[C@H](C)[C@H]12 [ertapenem],MIC,[1]; Klebsiella pneumoniae,> 16 µg/mL
same,% susceptible,[2]; A/P (N = 200),98%
same,% susceptible,[2]; EU (N = 354),98%
same,% susceptible,[2]; LA (N=113),91%
same,% susceptible,[2]; NA (N = 163),94%
same,per cent susceptible,[3],99%
same,per cent susceptible,[4],>99%
same,per cent susceptible,[5],99%
CC(=O)O[C@H]1C[C@@]2(C)[C@@H](C[C@@H](O)[C@H]3[C@@]4(C)CC[C@@H](O)[C@@H](C)[C@@H]4CC[C@@]32C)/C1=C(\CCC=C(C)C)C(=O)O [fusidic acid],Susceptibility,"[6]; ICU, SRGA breakpoints, tigecycline tentative S ≤2 μg/ml",91%
same,Susceptibility,[6]; non-ICU,93%
CCn1cc(C(=O)O)c(=O)c2cc(F)c(N3CCNC(C)C3)c(F)c21 (stereo not drawn) [lomefloxacin],resistant isolates,[7],100.0%
CC1(C)S[C@@H]2[C@H](NC(=O)[C@H](NC(=O)N3CCN(S(C)(=O)=O)C3=O)c3ccccc3)C(=O)N2[C@H]1C(=O)O [mezlocillin],resistant isolates,[7],100.0%
CO[C@@]1(NC(=O)C(C(=O)O)c2ccc(O)cc2)C(=O)N2C(C(=O)O)=C(CSc3nnnn3C)CO[C@@H]21 (stereo partly drawn) [moxalactam],resistant isolates,[7],75.7%
CCN[C@@H]1C[C@H](N)[C@@H](O[C@H]2OC(CN)=CC[C@H]2N)[C@H](O)[C@H]1O[C@H]1OC[C@](C)(O)[C@H](NC)[C@H]1O [netilmicin],resistance rate (NCCLS M100-S13),[8],1%
same,resistance rate (NCCLS M100-S13),[9],4%
same,resistance rate (NCCLS M100-S13),[10],0%
same,resistant isolates,[7],5.4%
CO[C@H]1/C=C/O[C@@]2(C)Oc3c(C)c(O)c4c(O)c(c(/C=N/N5CCN(C)CC5)c(O)c4c3C2=O)NC(=O)/C(C)=C\C=C\[C@H](C)[C@H](O)[C@@H](C)[C@@H](O)[C@@H](C)[C@H](OC(C)=O)[C@@H]1C [rifampin],resistance rate,[11],"32,8%"
same,MIC50,[12],< 0.0075 µg/mL
same,MIC90,[12],< 0.0375 µg/mL
same,MIC50,[13],< 32 µg/mL
same,MIC90,[13],< 32 µg/mL
same,susceptible,[14]; year 1: 2002,96.7%
same,susceptible,[14]; year 2: 2003,98.9%
same,Susceptibility,[15],99.3%
[H]/N=C(/N)N[C@H]1[C@H](O)[C@@H](O)[C@H](O[C@@H]2O[C@@H](C)[C@](O)(C=O)[C@H]2O[C@@H]2O[C@@H](CO)[C@H](O)[C@@H](O)[C@@H]2NC)[C@@H](N/C(N)=N\[H])[C@@H]1O [streptomycin],high-level resistance,[16],10.3%
same,resistance rate (NCCLS M100-S13),[8],1%
same,resistance rate (NCCLS M100-S13),[9],53%
same,resistance rate (NCCLS M100-S13),[10],59%
Amoxicillin / Clavulanic acid [Amox/Clav],MIC90,[17],2 µg/mL
same,%Sus,[17],99.2%
same,MIC90,[18],2 µg/mL
same,%Sus,[18]; [22],92.3%
same,%Sus,[18]; [23],96.5%
same,MIC90,[19],8 µg/mL
same,%Sus,[19]; [22],67.1%
same,%Sus,[19]; [23],83.5%
same,MIC90,[20],8 µg/mL
same,%Sus,[20]; [22],81.5%
same,%Sus,[20]; [23],88.6%
Trimethoprim/sulfamethoxazole [TMP/SMX],MIC90,[17],> 4 µg/mL
same,%Sus,[17],76.5%
same,MIC90,[18],8 µg/mL
same,%Sus,[18]; [22],50.2%
same,MIC90,[19],> 8 µg/mL
same,%Sus,[19]; [22],13.8%
same,MIC90,[20],8 µg/mL
same,%Sus,[20]; [22],24.5%
colistin,susceptibility category,[1]; BSAC,susceptible
trimethoprim/sulfadiazine [TS],resistance,"[21]; Belgian collection (caecal samples; Belgium, France, Netherlands)",18%
same,resistance,[21]; Germany (carcass meat),12%
